{
  "source": "patent EP2921176A2",
  "about": "“PHARMACEUTICAL COMPOSITION FOR TREATMENT OF PROSTATIC HYPERPLASIA” (priority 2012, dated 2014)",
  "key": {"[1]": {"tested_on": "prostate gland (PG) in rats with the benign prostatic hyperplasia (BPH)", "assay_type": "in vivo", "conditions": "for Mass of PG, mg At end of experiment / Mass of PG, mg Initial / MF PG (mass factor of the PG): rats with BPH", "procedure": "The effect of the new mixtures of peptides on the mass of the prostate of rats in the model of benign prostate hyperplasia caused by testosterone propionate, was studied on 98 white non-pedigree male rats (mass 220-280 g at the beginning of the experiment), and 10 white non- pedigree male rats with a mass of 22-26 g (acute toxicity was assessed in those animals in a separate series o experiments).\nJ. Med. Food., 2007, Vol. 10, No 4, p. 628-635; Liu H.P., Chen G.L., Liu P., Xu X.P. «Amlodipine alone or combined with terazosin improves lower urinary tract disorder in rat models of benign prostatic hyperplasia or detrusor instability: focus on detrusor overactivity\". BJU Int., 2009, Vol. 104, No 11, p. 1752-1757).\n(§1) The animals in those groups were injected intramuscularly (i/m) a mixture of peptides in doses of 50, 150 and 600 mcg/kg/day, alpha1-adrenergic blocker Doxazosin (Zoxon, Zentiva a.s., Czech Republic) in the dose of 1 mg/kg/day and 2nd type 5 alpha-reductase inhibitor Finasteride (Proscar, Merck Sharp & Dohme, The Netherlands) in the dose of 10 mg/kg/day in the stomach (via an intragastral sonde) for 18 days (from day 4), and also the well-known homeopathic drug Prostatine (OOO «Homeofarma», Russia) with 5 pellets into the stomach for 18 days. The rats in the control group received intramuscularly only an isotonic solution of sodium chloride (NaCl) in equivolume quantities.\nExtraction of the prostatic gland (PG) for morphological (light-optical) analysis was done both before and after the reproduction of BPH (on days 22 and 23). The rats were decapitated under general anesthesia with ether, following which the prostatic gland was extracted and weighed (analytical balance «Sartogosm LV 120-A», Russia, inaccuracy-0.5 mg)."}, "[2]": {"tested_on": "prostate gland of rats with BPH", "assay": "Morphological and morphometric (light-optical) analysis of the prostate gland in the rat BPH model", "assay_type": "in vivo", "set-up": "key to COLL (score estimate of the content of collagen in the stroma, median): 0: Absent in the field of vision; 1: Thin friable fibers; 2: Thin oriented bunches; 3: Dense interlayers; 4: Zones of fibrosis", "conditions": "for EPIT (volume fraction of the epithelium) / LUMEN (volume fraction of acinar lumens) / STROMA (volume fraction of stroma): mean ± standard error of the mean", "source_text": "The material was subjected to standard histological processing in accordance with Example 2. Sections were stained according to Van Gieson, as well as with hematoxyline and eosin. In addition to the morphological description of the preparations, a quantitative analysis of the most important morphological parameters of the PG (Table 2) to assess the dynamics of morphological changes. The prostate's functional status (fibrosis, epithelium hyperplasia, retention of the prostatic fluid in acinuses) can be assessed using the epithelium/stroma and epithelium/duct indices. Table 2. Classes of morphological analysis\nThe morphometric analysis was conducted using a Leica DM2500 microscope fitted with a digital photographic camera. The digital images were used to assess structural changes in PG tissues. Volume fractions of acinuses, stroma and epithelium were defined by point counting. Scoring was used to more accurately determine the quantity of collagen fibers because of their small percentage share (around 1-2%) (Table 3). Table 3. The criteria for scoring the quantity of collagen fibers\nA comparison of the groups in terms of different parameters using the Kruskal-Wallis one-way analysis of variance by ranks, Dan and Wilcoxon-Mann-Whitney test data were obtained on intergroup differences at the set level of significance of p < 0,05. […]\nas §1\nThe material was subjected to standard histological processing. For light-optical analysis, pieces of the PG were fixed with 10% neutral formalin, following which histological sections were prepared. The sections were stained according to Van Gieson, and also with hematoxyline and eosin. In addition to morphological description of the microsections, a quantitative evaluation of the most important morphological parameters of the PG for the purpose of objective assessment of the dynamics of morphological changes. A Leica DM2500 microscope with a digital photographic camera was used for morphometric analysis. The digital images were used to assess structural changes in the PG's tissues."}, "prostate": {"tested_on": "prostate", "conditions": "after 1 to 3 months; cited from earlier work"}, "[3]": {"conditions": "1 mg/kg/day in stomach for 18 days"}, "[4]": {"conditions": "10 mg/kg/day in stomach for 18 days"}},
  "note": "Like-named read-outs stand apart in the source and are kept apart here.",
  "data": [
    {"smiles": "COc1cc2nc(N3CCN(C(=O)C4COc5ccccc5O4)CC3)nc(N)c2cc1OC", "note": "(stereo not drawn) [Doxazosin]", "values": [
      {"measurement": "Mass of PG, mg At end of experiment", "setting": "[1]; [3]", "value": "7.7e+10 ± 7e+09", "unit": "pg"},
      {"measurement": "Mass of PG, mg Initial", "setting": "[1]; [3]", "value": "2.38e+11 ± 1.8e+10", "unit": "pg"},
      {"measurement": "MF PG (mass factor of the PG)", "setting": "[1]; 1 mg/kg/day in the stomach for 18 days", "value": "virtually unreduced"},
      {"measurement": "COLL (score estimate of the content of collagen in the stroma, median)", "setting": "[2]; [3]", "value": 2},
      {"measurement": "EPIT/LUMEN (ratio of share of epithelium to share of acinar lumens)", "setting": "[2]; [3]", "value": "36.62 ± 1.19"},
      {"measurement": "EPIT/STR (ratio of share of epithelium to share of stroma)", "setting": "[2]; [3]", "value": "75.55 ± 1.34"},
      {"measurement": "morphological picture of stroma", "setting": "[2]; [3]", "value": "Inflammation and edema were completely absent in the Doxazosin group, but there were zones of fibrosis"},
      {"measurement": "structure (morphology) of epithelium", "setting": "[2]; [3]", "value": "acinuses covered with epithelium with normal morphology alternated with acinuses with hyperplastic epithelium"},
      {"measurement": "EPIT (volume fraction of the epithelium)", "setting": "[2]; [3]", "value": "19.79 ± 0.84", "unit": "%"},
      {"measurement": "LUMEN (volume fraction of acinar lumens)", "setting": "[2]; [3]", "value": "54.03 ± 1.05", "unit": "%"},
      {"measurement": "STROMA (volume fraction of stroma)", "setting": "[2]; [3]", "value": "26.19 ± 0.93", "unit": "%"}
    ]},
    {"smiles": "C[C@]12C=CC(=O)N[C@@H]1CC[C@@H]1[C@@H]2CC[C@]2(C)[C@@H](C(=O)Nc3cc(C(F)(F)F)ccc3C(F)(F)F)CC[C@@H]12", "note": "[Dutasteride]", "values": [
      {"measurement": "reduction of the size of the prostate", "setting": "prostate", "value": "more than 20%"}
    ]},
    {"smiles": "CC(C)(C)NC(=O)[C@H]1CC[C@H]2[C@@H]3CC[C@H]4NC(=O)C=C[C@]4(C)[C@H]3CC[C@]12C", "note": "[Finasteride]", "values": [
      {"measurement": "reduced the mass of the PG (times, compared to the control)", "setting": "[1]; 10 mg/kg/day in stomach for 18 days, p<0,05", "value": 1.4, "unit": "times"},
      {"measurement": "MF PG (mass factor of the PG)", "setting": "[1]; [4]", "value": "65±5 mg/100 r mass of the rat"},
      {"measurement": "Mass of PG, mg At end of experiment", "setting": "[1]; [4]", "value": "6.5e+10 ± 5e+09", "unit": "pg"},
      {"measurement": "Mass of PG, mg Initial", "setting": "[1]; [4]", "value": "1.99e+11 ± 1.4e+10", "unit": "pg"},
      {"measurement": "COLL (score estimate of the content of collagen in the stroma, median)", "setting": "[2]; [4]", "value": 1},
      {"measurement": "EPIT/LUMEN (ratio of share of epithelium to share of acinar lumens)", "setting": "[2]; [4]", "value": "47.31 ± 1.49"},
      {"measurement": "EPIT/STR (ratio of share of epithelium to share of stroma)", "setting": "[2]; [4]", "value": "53.41 ± 1.55"},
      {"measurement": "morphological picture of stroma", "setting": "[2]; [4]", "value": "highly edemous"},
      {"measurement": "structure (morphology) of epithelium", "setting": "[2]; [4]", "value": "caused injury and death of epithelial cells"},
      {"measurement": "EPIT (volume fraction of the epithelium)", "setting": "[2]; [4]", "value": "20.06 ± 0.95", "unit": "%"},
      {"measurement": "LUMEN (volume fraction of acinar lumens)", "setting": "[2]; [4]", "value": "42.40 ± 1.17", "unit": "%"},
      {"measurement": "STROMA (volume fraction of stroma)", "setting": "[2]; [4]", "value": "37.55 ± 1.14", "unit": "%"}
    ]}
  ]
}
